Reference: patent publication US7105577B2, “Antimicrobial method using a hydroxydiphenyl ether compound” (Ciba Specialty Chemicals Corporation, priority 1999, dated 2006)
≈ marks a conversion by molar mass, not a printed value.

Key:
Assay in all cases: Agar incorporation test, MIC
Assay type in all cases: cell-based
[1] = tested on: Staphylococcus hominis DSM 20328; settings: DSM20328; Table 1; Staphylococcus hominis DSM 20328; agar incorporation; read-out: Minimum Inhibitory Concentration, SH
[2] = tested on: Aspergillus niger ATCC 6275; settings: ATCC6275; Table 1; Aspergillus niger ATCC 6275; agar incorporation; read-out: Minimum Inhibitory Concentration, AN
Excerpt: (§1) Medium: • Nutrient agar as test agar for bacteria: • Mueller hinton agar to cultivate the aerobic bacteria • Mueller hinton bouillon for obtaining the suspension of microorganisms • Ethanol as solvent • Wilkins-Chalgren agar to cultivate the […] bacteria • Sabouraud glucose agar to cultivate the dermatophytes
(§2) Examples of Test bacteria • Staphylococcus aureusATCC 6538 • Staphylococcus hominis DSM 20330 • Escherichia coli NCTC 8196 • Pseudomonas aeruginosa CIP A-22 • Candida albicans ATCC 10231 • Aspergillus niger ATCC 6275
(§3) Procedure: The test substances are dissolved in ethanol, and a dilution series of the compound of the formula (102) in agar are prepared. • Anaerobic bacteria and dermatophytes are activated on agar-plates, and washes off with Mueller-Hinton bouillon. Aerobic bacteria are activated in Mueller-Hinton bouillon overnight. The test germ suspension are diluted with Mueller-Hinton bouillon to a density of McFarland standard 0.5. • 10 μl of each germ suspension is dropped onto the agar plates containing the test substance, and the plates are then incubated at 37° C. for 2 days. (Aerobic bacteria are incubated at 36° C. for 72 hours, anaerobic bacteria are incubated at 30° C. for 72 hours). As controls, the bacterial suspensions are applied to agar plates without test substances.

[3] = tested on: Candida albicans ATCC 10231; settings: ATCC10231; Table 1; Candida albicans ATCC 10231; agar incorporation; read-out: Minimum Inhibitory Concentration, CA
Excerpt: as §1, §2, §3

[4] = tested on: Escherichia coli NCTC 8196; settings: NCTC8196; Table 1; Escherichia coli NCTC 8196; agar incorporation; read-out: Minimum Inhibitory Concentration, EC
Excerpt: as §1, §2, §3

[5] = tested on: Staphylococcus aureus ATCC 6538; settings: ATCC6538; Table 1; Staphylococcus aureus ATCC 6538; agar incorporation; read-out: Minimum Inhibitory Concentration, SA
Excerpt: as §1, §2, §3

SMILES	MIC [1]	MIC [2]	MIC [3]	MIC [4]	MIC [5]
CCCCc1ccc(Oc2ccccc2)cc1O [(104)]	30 µg/mL (≈ 124 µM)	60 µg/mL (≈ 248 µM)	30 µg/mL (≈ 124 µM)	30 µg/mL (≈ 124 µM)	
CCCc1ccc(Oc2ccccc2)cc1O [(105)]	30 µg/mL (≈ 131 µM)	30 µg/mL (≈ 131 µM)	30 µg/mL (≈ 131 µM)	30 µg/mL (≈ 131 µM)	
CCCCCc1ccc(Oc2ccccc2)cc1O [(106)]	30 µg/mL (≈ 117 µM)	60 µg/mL (≈ 234 µM)	60 µg/mL (≈ 234 µM)	30 µg/mL (≈ 117 µM)	
Oc1ccccc1Oc1ccccc1 [(107)]	30 µg/mL (≈ 161 µM)	120 µg/mL (≈ 644 µM)		30 µg/mL (≈ 161 µM)	
CCC(=O)c1ccc(O)c(Oc2ccccc2)c1 [(108)]	60 µg/mL (≈ 248 µM)			120 µg/mL (≈ 495 µM)	
CCCC(=O)c1ccc(O)c(Oc2ccccc2)c1 [(109)]	30 µg/mL (≈ 117 µM)	120 µg/mL (≈ 468 µM)	120 µg/mL (≈ 468 µM)	30 µg/mL (≈ 117 µM)	

Other lines, results leading:

MIC [1]	MIC [2]	MIC [3]	MIC [4]	MIC [5]	SMILES
			30 µg/mL (≈ 140 µM)		O=Cc1ccc(O)c(Oc2ccccc2)c1 [(110)]
60 µg/mL (≈ 248 µM)	120 µg/mL (≈ 495 µM)	30 µg/mL (≈ 124 µM)			CCC(C)c1ccccc1Oc1ccccc1O (stereo not drawn) [(111)]
60 µg/mL (≈ 263 µM)	120 µg/mL (≈ 526 µM)	60 µg/mL (≈ 263 µM)			CC(C)c1ccccc1Oc1ccccc1O [(112)]
30 µg/mL (≈ 150 µM)	60 µg/mL (≈ 300 µM)	120 µg/mL (≈ 599 µM)	30 µg/mL (≈ 150 µM)		Cc1ccccc1Oc1ccccc1O [(113)]
30 µg/mL (≈ 124 µM)	120 µg/mL (≈ 495 µM)	60 µg/mL (≈ 248 µM)	30 µg/mL (≈ 124 µM)		CC(C)(C)c1ccccc1Oc1ccccc1O [(114)]
120 µg/mL (≈ 560 µM)	120 µg/mL (≈ 560 µM)	120 µg/mL (≈ 560 µM)	120 µg/mL (≈ 560 µM)		CCc1ccccc1Oc1ccccc1O [(115)]
30 µg/mL (≈ 124 µM)	30 µg/mL (≈ 124 µM)	30 µg/mL (≈ 124 µM)			CCC(C)c1ccccc1Oc1cccc(O)c1 (stereo not drawn) [(116)]
			60 µg/mL (≈ 297 µM)		Oc1ccc(Oc2ccccc2O)cc1 [(117)]
3 µg/mL (≈ 12.4 µM)		50 µg/mL (≈ 206 µM)	50 µg/mL (≈ 206 µM)	5 µg/mL (≈ 20.6 µM)	Cc1ccc(C(C)C)c(Oc2ccc(O)cc2)c1 [(118)]
